Source: article PMC6021111, “Murine leukemia virus p12 tethers the capsid-containing pre-integration complex to chromatin by binding directly to host nucleosomes in mitosis” (PLoS Pathogens, 2018)

Columns and labels:
[1] = system: Glycogen synthase kinase 3 (GSK3); conditions: cited from earlier work
[2] = system: H2B precipitation with GST-p12_M63I, 293T cells; assay: Kinase inhibition, H2B pull-down with GST-p12_M63I; assay type: cell-based; conditions: 3.5 h with nocodazole and 10 μM MG132, immunoblot
Description: (§1) Glycogen synthase kinase 3 (GSK3) and cyclin-dependent kinase 5 (CDK5) were predicted to phosphorylate Mo-MLV p12 on S61, by the NetPhos 3.1 kinase prediction algorithm. […] These drugs were tested in our biochemical assays for their ability to reduce GST-p12_M63I phosphorylation and chromatin association. In our assays, cells transiently-expressing GST-p12_M63I were cultured in media containing nocodazole overnight, prior to the addition of the kinase inhibitors. […] After removal of the drugs, cells were immediately washed and lysed for glutathione-sepharose bead pull-down assays. The eluates from the beads were analysed by SDS-PAGE followed by sequential staining with PQ and SR dyes to quantify the phosphorylation levels of GST-p12_M63I. LiCl treatment had little effect on GST-p12_M63I phosphorylation (Fig 7A, lane 2). […] To correlate GST-p12_M63I phosphorylation with its ability to interact with chromatin, we quantified the amounts of H2B in the pull-down eluates by immunoblotting. […] The short period of kinase inhibition used in our assays, may have limited the effects observed on GST-p12_M63I phosphorylation.
(§2) GST-p12 proteins were expressed in 293T cells from pCAGGS/GST-derived plasmids by transient transfection using Turbofect (Thermo Fisher Scientific). Approximately 24 h after transfection, cells were changed into fresh media containing either 400 ng/ml nocodazole (Sigma) or 2 μg/ml aphidicolin (Sigma) and incubated overnight at 37°C. The synchronisation of the cell cultures after drug treatment was assessed by propidium iodide staining and cell cycle phase analysis by flow cytometry. Cells to be used in pull down assays were washed and lysed in 20 mM Tris pH 8.0, 300 mM NaCl, 1 mM EDTA, 10% Glycerol, 1% Triton X-100, protease inhibitors (Roche), phosphatase inhibitors (Merck). Lysis was facilitated by passing the lysates through a 19-gauge needle x7 and sonication, x7 pulses, 30 s ON and 30 s OFF, in an ice bath (Decon FS100). […] ProQ diamond and Sypro ruby staining (Thermo Fisher Scientific) of gels was visualised and quantified on a ChemiDoc imaging system (Bio-Rad). […]

[3] = system: GST-p12_M63I phosphorylation in 293T cells; assay: Kinase inhibition, GST-p12_M63I phosphorylation (PQ/SR); assay type: cell-based
Description: as §1, §2

GST-p12_WT = assay: SILAC-MS of proteins enriched with GST-p12_WT relative to GST; assay type: binding, Mo-MLV; conditions: for SDs from the mean: log2(GST-p12_WT, Heavy/GST, Light)
Description: To test whether GST-p12 was acting like the p12 region of Gag, we used a global proteomic approach based on stable isotope labelling by amino acids in cell culture (SILAC)-mass spectrometry (MS) to look for host proteins that interact with GST-p12 [35, 36]. A schematic diagram of the workflow is illustrated in Fig 4A. Briefly, GST, GST-p12_mut14 and GST-p12_WT were transiently-expressed in 293T cells cultured in light (R0/K0), medium (R6/K4) and heavy (R10/K8) SILAC media, respectively. Next, lysates of nocodazole treated transfected cells were prepared, normalised and used for parallel pull-down assays with glutathione-sepharose beads. The eluates from the beads were then pooled in a 1:1:1 ratio and subjected to LC-MS/MS analysis. The experiment was performed using biological replicates to test reproducibility of the mass-spec hits. The pull-down assays for this experiment were performed using mitotic cell lysates to facilitate identification of any potential chromatin interactions that were previously missed.
After removal of obvious contaminants (e.g. keratin) and non-quantified hits, 948 and 879 proteins were identified in replicates 1 and 2 (R1 and R2) of the experiment respectively (the false discovery rate (FDR) was set at 5%). To select proteins enriched in the heavy-labelled (H) GST-p12_WT sample relative to the light-labelled (L) GST sample, we compared the log2(H/L) silac ratios of the mass-spectrometry hits. When plotted as a frequency distribution, the log2(H/L) ratios of each replicate fitted well to a normal distribution curve (R^2 ≥ 0.98), allowing the mean and standard deviation to be accurately estimated (Fig 4B). In this experiment, contaminants/non-specifically bound cellular proteins were assumed to cluster around the mean of the distribution. […] Twenty one such proteins were identified in R1 and 22 identified in R2 (Fig 4B Venn diagram). […] These proteins were then ranked based on normalised abundance in the group. In mass-spectrometry analysis, larger proteins are in general assigned higher scores. Therefore, to control for protein size, we divided the number of peptide spectral matches identified for each protein with its length and then normalised the values across the group (Fig 4C and 4D). When ranked this way, the clathrin heavy chain (CLTC), clathrin interactor 1 (CLINT1) and NEDD4-like E3 ubiquitin ligase (WWP2) were identified as the top three hits. […] The function of clathrin in MLV infection is unclear. […] Thus, clathrin binding may be relevant to the early stages of MLV replication and should be investigated further.
For SILAC-MS experiments, 293T cells were grown is media containing light (R0K0, ^12C-Arginine and ^12C-Lysine), medium (R6K4, ^13C-Arginine and Lysine-4,4,5,5-d4) or heavy (R10K8, ^13C+^15N-Arginine and ^13C+^15N-Lysine) versions of L-Arginine and L-Lysine amino acids (Pierce) for a minimum of 6 doublings before transient expression of GST-p12 proteins. After performing the glutathione-sepharose pull-down assays equivalent volumes of the beads eluates were pooled and submitted to the Bristol University Proteomics Facility for RP nano-LC-MS/MS analysis. This analysis was performed on an LTQ-Orbitrap Velos mass spectrometer in line with a Dionex Ultimate 3000 nanoHPLC system as described in [53].
Supplementary file ppat.1007117.s005.xlsx: S1 Table Results from the first SILAC-MS analysis. GST, Mo-MLV GST-p12_mut14 or GST-p12_WT were transiently-expressed in 293T cells cultured in light (R0/K0), medium (R6/K4) and heavy (R10/K8) SILAC media, respectively. Mitotic cell lysates were subsequently used for glutathione-sepharose bead pull-down assays. Bead eluates were pooled in a 1:1:1 ratio and then analysed by LC-MS/MS. […] (XLSX) Click here for additional data file.

[4] = system: nucleosome binding to immobilised p12 CTD peptides; assay: BLI competition, nucleosome binding to immobilised p12 CTD peptides; conditions: soluble hCBS 100 μM
Description: To identify whether p12 binds to the same nucleosomal docking site as the CBS from PFV Gag, we then tested the ability of p12 CTD peptides to block the binding of nucleosomal arrays to hCBS and vice versa (Fig 9E and 9F).
The binding of PFV hCBS and p12 CTD peptides to recombinant H3.3 poly-nucleosomes (Active Motif) was measured using biolayer interferometry on an Octet RED system (Pall ForteBio Corp). The peptides were synthesised with a N-terminal biotin tag and GGGG linker. The Mo-MLV, FeLV and GaLV p12 CTD peptide sequences used are highlighted in bold in Fig 5C. A negative control was included that contained an R66A change in the Mo-MLV p12_M63I CTD peptide. Mo-MLV phos p12_M63I CTD was also synthesised with a phosphorylated S61 residue. The hCBS (positive control) sequence used corresponds to the CBS of PFV Gag ([…]). The biotinylated peptides were loaded onto streptavidin biosensors (Pall ForteBio Corp) at 0.5 μg/ml for 120 s in 10 mM HEPES pH 7.5, 150 mM NaCl, 0.005% (v/v) Tween 20. Following a buffer wash, the biosensors were incubated with serially-diluted nucleosome preparations (~0.5–250 nM) for 900–5400 s to measure association. Experiments were performed at 25°C and sample plates were agitated at 1000 rpm. Equilibrium binding amplitudes were determined by exponential least squares curve fitting of the association phase. The estimated binding amplitudes were then plotted against approximate nucleosome concentrations on GraphPad Prism 7. Equilibrium binding constant (Kd) and maximum specific binding (Bmax) were calculated by fitting the data to a non-linear regression model. Experiments were performed at least in duplicate and the data pooled for fitting. For competition assays, soluble non-biotin tagged peptides were added to the nucleosomal arrays at 100 μM to inhibit nucleosome binding prior to recording BLI measurements with biotinylated peptide immobilised on sensor probes. The non-biotin tagged peptide sequences were: hCBS—[…]; hCBS_L539A/R540A - […]; p12_WT—[…]; p12_R66A - […].

Row | Compound | Normalised (PSMs/Length) (GST-p12_WT; Replicate 1) | PSMs (GST-p12_WT; Replicate 1) | PSMs/Length (GST-p12_WT; Replicate 1) | SDs from the mean (GST-p12_WT; Replicate 1) | Normalised (PSMs/Length) (GST-p12_WT; Replicate 2) | PSMs (GST-p12_WT; Replicate 2) | PSMs/Length (GST-p12_WT; Replicate 2) | SDs from the mean (GST-p12_WT; Replicate 2) | also measured
1 | [Cl-].[Li+] [LiCl] |  |  |  |  |  |  |  |  | inhibition of GSK3 [1]: shown to inhibit GSK3; effect on chromatin pull down ([2]; LiCl 40 mM): no significant effect; effect on GST-p12_M63I phosphorylation ([3]; LiCl 40 mM, 3.5 h with nocodazole and 10 μM MG132): little effect
2 | CC[C@H](CO)Nc1nc(NCc2ccccc2)c2ncn(C(C)C)c2n1 [roscovitine] |  |  |  |  |  |  |  |  | reduction of H2B precipitation by kinase inhibitor ([2]; roscovitine 75 μM, kenpaullone 40 μM): ~ 1.5 fold; reduction of GST-p12_M63I phosphorylation by kinase inhibitor ([3]; 3.5 h with nocodazole and 10 μM MG132, LiCl 40 mM, roscovitine 75 μM, kenpaullone 40 μM): ~ 1.5 fold
3 | Clathrin heavy chain 1: clathrin heavy chain, Q00610 | 49.383 | 90 | 0.05373 | 7.774 | 51.3165 | 96 | 0.05731 | 7.772 | 
4 | Inner centromere protein: cDNA FLJ31633, highly similar to this protein (fragment), B3KPD3 | 2.444 | 2 | 0.00266 | 6.525 | 1.191 | 1 | 0.00133 | 13.4521 | 
5 | NEDD4-like E3 ubiquitin-protein ligase WWP2: O00308 | 9.508 | 9 | 0.01034 |  | 9.262 | 9 | 0.01034 | 11.5377 | 
6 | NQGGYNLRPRTYQP [soluble hCBS, soluble non-biotin tagged hCBS peptide] |  |  |  |  |  |  |  |  | competition with binding of immobilised FeLV to nucleosomal arrays [4]: could compete with the binding; competition with binding of immobilised GaLV to nucleosomal arrays [4]: could compete with the binding; competition with binding of immobilised Mo-MLV p12_M63I to nucleosomal arrays [4]: could compete with the binding; competition with binding of immobilised Mo-MLV p12_WT to nucleosomal arrays [4]: could compete with the binding
7 | Phosphatidylinositol-4-phosphate 3-kinase C2domain-containing alpha polypeptide: cDNA FLJ53905, highly similar to this protein, B4DG55 | 2.815 | 4 | 0.003063 |  | 6.17 | 9 | 0.006891 | 6.685 | 
8 | Protein transport protein Sec16A: F1T0I1 | 1.969 | 5 | 0.002142 | 3.112 | 1.918 | 5 | 0.002142 | 2.575 | 
